{
  "source": "paper PMC10609273",
  "about": "“Radiosynthesis and Early Evaluation of a Positron Emission Tomography Imaging Probe [^18F]AGAL Targeting Alpha-Galactosidase A Enzyme for Fabry Disease” (Molecules, 2023)",
  "key": {"[1]": {"assay": "In vitro liver microsomal metabolism study, human", "assay_type": "in vitro ADME", "conditions": "human liver microsomes", "procedure": "Metabolic stability was assessed by incubating compounds in the presence of human, rat, and mouse liver microsomal fractions (Xenotech, Kansas City, KS, USA). All chemicals and reagents, including control compounds, were purchased from commercial sources such as Sigma-Aldrich (St. Louis, MO, USA) or Toronto Research Chemicals (North York, ON, Canada). Liver microsomal incubations were conducted with 100 mM phosphate buffer, 0.5 mg/mL of liver microsomal protein, 2 mM NADPH, 2.5 mM UDPGA, 3 mM MgCl2, alamethicin, and 1 μM test article for a total incubation volume of 80 µL. All reagents except the liver microsomes were mixed together and aliquoted (60 μL) into 96-well plates. The reaction was initiated by adding the microsomes (20 μL). At 0, 3, 7, 12, 20, and 30 min time points, the reactions were terminated with the addition of acetonitrile-containing carbutamide (as an internal standard). The terminated samples were then centrifuged at 2 °C to pellet the protein and the supernatant was injected onto an LC–MS. The test article was monitored for loss over time and the t1/2 was determined. The calculated t1/2 was then used as described below to determine the Eh (hepatic extraction ratio) for both human and rat.\nThe intrinsic clearance (CLint), hepatic clearance (CLh), and hepatic extraction ratio (Eh) were calculated using the equations below. CLint = (0.693/t1/2 in vitro) × (mL incubation volume/mg microsomal protein) × (X mg of microsomal protein/gram of liver) × (Y g of liver/kg of body weight)(1) CLh = Q × CLint/Q + CLint(2) Eh = CLh/Q(3) where: • CLint = intrinsic clearance (calculated from microsomal incubations) • X = 40 for human, 41.5 for rat and 45 for mouse • Y = 21.4 for human, 40 for rat and 50 for mouse • t1/2 = half-life • CLh = hepatic clearance • Q = liver blood flow rate = 1.24 L/h/kg for human, 4.8 L/h/kg for rat, and 5.4 L/h/kg for mouse • Eh = hepatic extraction ratio • CLh = hepatic clearance"}, "CYP2C9": {"target": "T1, CYP2C9 (Homo sapiens, UniProt P11712)", "T1 construct": "from tissue; host or cells: pooled human liver microsomes (n = 200)", "T1 sequence (P11712 whole entry)": "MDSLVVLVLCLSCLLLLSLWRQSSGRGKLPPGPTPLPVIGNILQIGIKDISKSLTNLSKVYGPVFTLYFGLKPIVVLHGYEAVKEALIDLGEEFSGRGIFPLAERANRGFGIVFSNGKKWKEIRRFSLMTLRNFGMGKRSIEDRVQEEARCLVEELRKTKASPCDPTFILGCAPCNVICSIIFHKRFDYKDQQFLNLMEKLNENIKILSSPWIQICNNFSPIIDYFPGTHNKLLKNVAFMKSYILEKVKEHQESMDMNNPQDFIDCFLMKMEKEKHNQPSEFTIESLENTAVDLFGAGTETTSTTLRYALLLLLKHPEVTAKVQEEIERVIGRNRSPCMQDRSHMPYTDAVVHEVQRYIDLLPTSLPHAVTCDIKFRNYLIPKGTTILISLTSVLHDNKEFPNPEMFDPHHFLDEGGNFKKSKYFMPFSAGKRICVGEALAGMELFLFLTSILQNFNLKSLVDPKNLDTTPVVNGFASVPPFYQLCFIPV", "assay": "Reversible CYP inhibition in pooled HLMs", "assay_type": "in vitro ADME", "conditions": "30 µM compound, substrate diclofenac", "procedure": "All chemicals and reagents including control compounds were purchased from commercial sources such as Sigma-Aldrich or Toronto Research Chemicals. The test article was tested for reversible inhibition of CYPs in human liver microsomes (HLM) (0.2 mg/mL protein) at a concentration range of 0–30 μM. Each condition was incubated in duplicate. The test article (0–30 μM), NADPH, and the CYP-selective probe substrate were incubated in a 96-well plate at 37 °C in 0.1 M potassium phosphate buffer, pH 7.4. The reactions were initiated by adding the HLMs. The total reaction volume was 100 μL.\nAfter the incubation period (10 min for CYP1A2, 2B6, and 2C9; 15 min for CYP2C19; and 4 min for CYP2C8 and 2D6 to accommodate linear kinetic conditions) at 37 °C, the reactions were terminated by the addition of 100 μL of ice-cold acetonitrile-containing carbutamide as an IS, then centrifuged at 2500× g for 10 min at 2 °C. A 150 μL aliquot of supernatant for each CYP assay, except for CYP1A2, was then transferred to a new plate for analysis. For CYP1A2, 80 μL of supernatant was transferred to the plate and further diluted with 80 μL of water before analysis. All samples were analyzed with liquid chromatography with tandem mass spectrometry (LC–MS/MS)."}, "[2]": {"target": "T2, Chinese hamster ovary cell-derived wild type aGal A (CHO aGal A) (Homo sapiens, UniProt P06280)", "T2 construct": "host or cells: Chinese hamster ovary (CHO) cells", "T2 sequence (P06280 32-429)": "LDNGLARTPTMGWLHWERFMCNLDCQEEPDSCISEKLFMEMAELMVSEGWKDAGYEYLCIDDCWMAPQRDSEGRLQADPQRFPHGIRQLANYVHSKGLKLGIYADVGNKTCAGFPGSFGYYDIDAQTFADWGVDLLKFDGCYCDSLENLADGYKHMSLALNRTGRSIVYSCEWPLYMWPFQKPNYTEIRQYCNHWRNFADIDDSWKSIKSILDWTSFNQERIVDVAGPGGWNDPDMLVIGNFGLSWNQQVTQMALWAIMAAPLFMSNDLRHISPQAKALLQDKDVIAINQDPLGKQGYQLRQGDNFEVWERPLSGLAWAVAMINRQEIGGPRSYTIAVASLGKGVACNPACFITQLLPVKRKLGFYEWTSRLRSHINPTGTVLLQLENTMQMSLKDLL", "assay": "In vitro affinity assay: residual activity of CHO aGal A enzyme, hydrolysis of 4-methylumbelliferyl-α-D-galactopyranoside", "assay_type": "biochemical", "conditions": "1 nM enzyme, 30 min preincubation at room temperature, pH 4.6, 5 mM 4-MUGA substrate", "procedure": "Using an in vitro affinity assay, measurement of residual activity by preincubating the enzyme with varying concentrations of the probe confirmed that the [^19F]\nFigure 5 Residual activity of CHO aGal A enzyme measured via hydrolysis of substrate 4−methylumbelliferyl−α−D−galactopyranoside after 30 min of preincubation with AGAL probe.\nThe IC50 assessment for the aGal inhibitors was performed using the fluorescent substrate in a McIlvaine buffer at pH 4.6. The CHO aGal A enzyme at 1 nM was pre-incubated with different concentrations of the inhibitor or DMSO as control for 30 min at room temperature. The fluorescent substrate 4-methylumbelliferyl-α-D-galactopyranoside (Research Products International company, catalog number M65400, Mount Prospect, IL, USA) was then added to a final concentration of 5 mM. The reaction was quenched with 0.5 M sodium bicarbonate buffer, with pH 10.5, and plates were read using a SpectraMax reader at excitation and emission wavelengths of 360 and 460 nm, respectively. Data were corrected for background fluorescence and IC50 calculation was performed using an inhibitory dose–response curve fitting in GraphPad Prizm 8.0."}},
  "data": [
    {"smiles": "O=C(CCCCCCCn1cc(CCCF)nn1)N1[C@@H]2[C@H](O)[C@@H](O)[C@@H](O)[C@@H](CO)[C@@H]21", "note": "[AGAL]", "values": [
      {"measurement": "CLh", "setting": "[1]", "result": "<4.68", "unit": "mL/min/kg"},
      {"measurement": "Eh (hepatic extraction ratio)", "setting": "[1]", "result": "<0.226"},
      {"measurement": "microsomal stability, clearance in words", "setting": "[1]", "result": "minimally cleared"},
      {"measurement": "CLint scaled at 1 µM", "setting": "[1]; 1 μM, NADPH + UDPGA", "result": "< 6.05", "unit": "mL/min/kg"},
      {"measurement": "reversible inhibition of CYP2C9 activity", "setting": "CYP2C9", "result": "no significant loss of CYP activity"},
      {"measurement": "IC50", "setting": "[2]", "result": 30, "unit": "nM"}
    ]}
  ]
}
